Where no end group is shown, it is not given here.
Columns and labels:
[1] = tested on: λ-carrageenan acute inflammation; experiment: acute toe swelling in carrageenan-induced transgenic TNF-luc mice; type: in vivo, BALB/c transgenic TNF-luc mice; conditions: Adalimumab 8 mg/kg, mPEG-SC20k-HM-3 20 mg/kg sc
Procedure: Before modeling, 8 animals are randomly divided into 4 groups (n=2), a normal group, a model group, a positive drug group and a test treatment group. One hour before modeling, the normal group and the model group are hypodermically injected with normal saline (0.2 mL/20 g of body weight) respectively; the positive drug group is hypodermically injected with Adalimumab (8 mg/kg of body weight), 15 d/time, once; and the test treatment group is hypodermically injected with mPEG-SC20k-HM-3 (20 mg/kg of body weight), 2 d/time, twice. The initial ankle width, foot palm width and toe thickness of the left foot are measured as initial values.
Modeling starts at hour 0, 50 μL of 1% carrageenan is hypodermically injected into the bottom of left toe of transgenic TNF-luc mice, and the ankle swelling degree, foot palm swelling degree and toe swelling degree of each group of mice are measured with a vernier caliper at […], hour 1, hour 3, hour 5, hour 7, hour 9, hour 12, hour 24, hour 48, hour 72 and hour 96 respectively. Method for calculating toe swelling degree:
Swelling degree of left ankle (cm)=swelling thickness of left ankle during measurement−thickness of left ankle during initial measurement.
Swelling degree of left foot palm (cm)=swelling thickness of left foot palm during measurement−thickness of left foot palm during initial measurement.
Swelling degree of left toe (cm)=swelling thickness of left toe during measurement−thickness of left toe during initial measurement.

[2] = tested on: AIA transgenic TNF-luc mice; experiment: adjuvant-induced arthritis in transgenic TNF-luc mice (swelling, scores, weight, HE staining); type: in vivo, BALB/c transgenic TNF-luc mice; set-up: right ankle swelling / left ankle swelling / left toe swelling / right toe swelling / changes of weight (added value): unit not given here; conditions: Adalimumab 8 mg/kg
Procedure: 8 animals are randomly divided into 4 groups (n=2), a normal group, a model group, a positive drug group and a test group. On day 0, the initial left and right ankle thicknesses, initial left and right foot palm thicknesses and initial left and right toe thicknesses of each group of mice are measured. On day 0, 50 μL/mouse complete Freund's adjuvant is injected into the bottom of the left toe of each group of mice, and the treatment is started after secondary inflammation appears in the right foot of each group of mice on day 17. On day 17, the normal group and the model group are hypodermically injected with 0.9% normal saline (0.2 mL/20 g of body weight), once every 2 days, 7 times in total. The positive drug Adalimumab group is hypodermically injected with Adalimumab (8 mg/kg of body weight), once every 15 days, once in total. The test group is hypodermically injected with mPEG-SC20k-HM-3 (20 mg/kg of body weight), once every 2 days, 7 times in total. The treatment lasts for 15 days. Then, medication is stopped for observation for one week, and the mice are killed one week later.
On day 0, the initial ankle widths, foot palm widths and toe thicknesses of left and right feet are measured with a vernier caliper as initial values. Every 2 days, the left and right ankle widths, foot palm widths and toe thicknesses of each group of mice are measured separately with the vernier caliper, and compared with the initial values to calculate the changes in the swelling degree.
The joints of the mouse paw are observed with naked eyes, and the joints are scored every 2 days from day 17. Scoring is performed in terms of level 0 to level 4, 5 levels in total.
After the secondary inflammation appears, systemic scoring is performed every 2 days.
Changes of expression of TNF-α and IL-6 are analyzed by HE staining and immunohistochemistry in the ankle joint, spleen and thymus of the mice. Observation and photographing are performed under the FOVs of ×200 and ×400 times respectively, 5 FOVs are taken randomly for each picture, and data statistics is performed.

[3] = 0 d, before treatment (starts day 17), mPEG-SC20k-HM-3 20 mg/kg groups
[4] = 1 d, before treatment (starts day 17), mPEG-SC20k-HM-3 20 mg/kg groups
[5] = 3 d, before treatment (starts day 17), mPEG-SC20k-HM-3 20 mg/kg groups
[6] = 6 d, before treatment (starts day 17), mPEG-SC20k-HM-3 20 mg/kg groups
[7] = 9 d, before treatment (starts day 17), mPEG-SC20k-HM-3 20 mg/kg groups
[8] = 12 d, before treatment (starts day 17), mPEG-SC20k-HM-3 20 mg/kg groups
[9] = 16 d, before treatment (starts day 17), mPEG-SC20k-HM-3 20 mg/kg groups
[10] = 17 d (treatment starts), mPEG-SC20k-HM-3 20 mg/kg sc
[11] = 19 d, mPEG-SC20k-HM-3 20 mg/kg sc
[12] = 22 d, mPEG-SC20k-HM-3 20 mg/kg sc
[13] = 25 d, mPEG-SC20k-HM-3 20 mg/kg sc
[14] = 28 d, mPEG-SC20k-HM-3 20 mg/kg sc
[15] = 31 d, mPEG-SC20k-HM-3 20 mg/kg sc

mPEG-SC20k-Ile-Val-Arg-Arg-Ala-Asp-Arg-Ala-Ala-Val-Pro-Gly-Gly-Gly-Gly-Arg-Gly-Asp ({mPEG‑SC 20k}-IVRRADRAAVPGGGGRGD) [polypeptide III, No. 3]
left ankle swelling ([1]; 1 h): 0.060 ± 0.045 cm
left foot (palm) swelling ([1]; 1 h): 0.101 ± 0.027 cm
left toe swelling ([1]; 1 h): 0.132 ± 0.054 cm
left ankle swelling ([1]; 3 h): 0.079 ± 0.052 cm
left foot (palm) swelling ([1]; 3 h): 0.092±0.054 cm
left toe swelling ([1]; 3 h): 0.114 ± 0.025 cm
left ankle swelling ([1]; 5 h): 0.117 ± 0.033 cm
left foot (palm) swelling ([1]; 5 h): 0.125 ± 0.035 cm
left toe swelling ([1]; 5 h): 0.146 ± 0.003 cm
left ankle swelling ([1]; 7 h): 0.074 ± 0.014 cm
left foot (palm) swelling ([1]; 7 h): 0.116 ± 0.034 cm
left toe swelling ([1]; 7 h): 0.174 ± 0.065 cm
left ankle swelling ([1]; 9 h): 0.061 ± 0.013 cm
left foot (palm) swelling ([1]; 9 h): 0.086 ± 0.008 cm
left toe swelling ([1]; 9 h): 0.124 ± 0.014 cm
left ankle swelling ([1]; 12 h): 0.055 ± 0.018 cm
left foot (palm) swelling ([1]; 12 h): 0.091 ± 0.004 cm
left toe swelling ([1]; 12 h): 0.113 ± 0.027 cm
left ankle swelling ([1]; 24 h): 0.066 ± 0.003 cm
left foot (palm) swelling ([1]; 24 h): 0.107 ± 0.010 cm
left toe swelling ([1]; 24 h): 0.136 ± 0.011 cm
left ankle swelling ([1]; 48 h): 0.051±0.044 cm
left foot (palm) swelling ([1]; 48 h): 0.105 ± 0.010 cm
left toe swelling ([1]; 48 h): 0.126 ± 0.031 cm
left ankle swelling ([1]; 72 h): 0.032±0.074 cm
left foot (palm) swelling ([1]; 72 h): 0.101 ± 0.016 cm
left toe swelling ([1]; 72 h): 0.094±0.034 cm
left ankle swelling ([1]; 96 h): 0.032±0.042 cm
left foot (palm) swelling ([1]; 96 h): 0.076±0.006 cm
left toe swelling ([1]; 96 h): 0.084±0.040 cm
changes of weight (added value) [2, 3]: 0.00 ± 0.00
left ankle swelling [2, 3]: 0.000 ± 0.000
left foot (palm) swelling [2, 3]: 0.000 ± 0.000
left toe swelling [2, 3]: 0.000 ± 0.000
left ankle swelling [2, 4]: 0.188 ± 0.018
left foot (palm) swelling [2, 4]: 0.163 ± 0.052
left toe swelling [2, 4]: 0.255 ± 0.027
changes of weight (added value) [2, 5]: 0.27 ± 0.06
left ankle swelling [2, 5]: 0.204 ± 0.074
left foot (palm) swelling [2, 5]: 0.174 ± 0.088
left toe swelling [2, 5]: 0.225 ± 0.106
changes of weight (added value) [2, 6]: 0.28 ± 0.25
left ankle swelling [2, 6]: 0.265 ± 0.031
left foot (palm) swelling [2, 6]: 0.207 ± 0.055
left toe swelling [2, 6]: 0.261 ± 0.126
changes of weight (added value) [2, 7]: 0.40 ± 0.39
left ankle swelling [2, 7]: 0.251 ± 0.029
left foot (palm) swelling [2, 7]: 0.224 ± 0.062
left toe swelling [2, 7]: 0.260 ± 0.156
changes of weight (added value) [2, 8]: 0.42 ± 0.66
left ankle swelling [2, 8]: 0.265 ± 0.028
left foot (palm) swelling [2, 8]: 0.228 ± 0.054
left toe swelling [2, 8]: 0.303 ± 0.103
changes of weight (added value) ([2]; 15 d, before treatment (starts day 17), mPEG-SC20k-HM-3 20 mg/kg groups): 0.67 ± 1.06
left ankle swelling [2, 9]: 0.274 ± 0.020
left foot (palm) swelling [2, 9]: 0.221 ± 0.041
left toe swelling [2, 9]: 0.294 ± 0.092
right ankle swelling [2, 9]: 0.024 ± 0.011
right foot palm swelling [2, 9]: 0.007 ± 0.007
right toe swelling [2, 9]: 0.015 ± 0.021
joint index score [2, 10]: 7.50 ± 0.70
whole body (systemic) score [2, 10]: 5.50 ± 0.70
changes of weight (added value) [2, 11]: 0.97 ± 1.09
left ankle swelling [2, 11]: 0.297 ± 0.005
right ankle swelling [2, 11]: 0.019 ± 0.009
right foot palm swelling [2, 11]: 0.010 ± 0.011
changes of weight (added value) [2, 12]: 0.82 ± 0.57
left ankle swelling [2, 12]: 0.252 ± 0.006
right foot palm swelling [2, 12]: 0.003 ± 0.016
changes of weight (added value) [2, 13]: 0.61 ± 0.72
left ankle swelling [2, 13]: 0.219 ± 0.013
left toe swelling [2, 13]: 0.292 ± 0.107
right toe swelling [2, 13]: 0.015 ± 0.027
changes of weight (added value) [2, 14]: 1.13 ± 0.18
right ankle swelling [2, 14]: 0.021±0.013
changes of weight (added value) [2, 15]: 1.15 ± 0.40
left toe swelling [2, 15]: 0.270 ± 0.127
HE staining of ankle joints: pathological symptoms vs model group ([2]; mPEG-SC20k-HM-3 20 mg/kg): relieved to some extent
